Test results as given in patent US20230093861A1, “RAPAMYCIN ANALOGS AS MTOR INHIBITORS” (Revolution Medicines, Inc., priority 2017, published 2023).
Read-outs that look alike come from different tables or passages of the source.

Legend:
[1] = system: P-4E-BP1 (T37/46); experiment: Cell based AlphaLISA assay, inhibition of P-4E-BP1 (T37/46) (mTORC1 substrate phosphorylation) in MDA-MB-468 cells; details: Homo sapiens, two to four hours at 37° C.
Procedure, shortened: (§1)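 Compound incubation stopped by buffer removal plus kit lysis buffer; lysates processed per kit protocol; Alpha signal read in duplicate. IC50: normalized regression fit, control-based normalization.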

[2] = system: P-P70S6K (T389); experiment: Cell based AlphaLISA assay, inhibition of P-P70S6K (T389) (mTORC1 substrate phosphorylation) in MDA-MB-468 cells; details: Homo sapiens, 4 h, two to four hours at 37° C.
Procedure, shortened: as §1

[3] = system: P-Akt (S473); experiment: Cell based AlphaLISA assay, inhibition of P-Akt (S473) (mTORC2 substrate phosphorylation) in MDA-MB-468 cells; details: Homo sapiens, two to four hours at 37° C.
Procedure, shortened: as §1

[4] = MDA-MB-468, 4 h, AlphaLISA, read-out: pIC50 for Inhibition of mTORC1 and mTORC2 Substrate Phosphorylation, P-4E-BP1-(T37/46) (converted)
[5] = AlphaLISA, read-out: pIC50 for Inhibition of mTORC1 and mTORC2 Substrate Phosphorylation, P-P70S6K-(T389) (converted)
[6] = MDA-MB-468, 4 h, AlphaLISA, read-out: pIC50 for Inhibition of mTORC1 and mTORC2 Substrate Phosphorylation, p-AKT 1/2/3 -(S473) (converted)

Compound | IC50 [1, 4] [nM] | IC50 [2, 5] [nM] | IC50 [3, 6] [nM] | IC50 ([1]; 4 h, AlphaLISA, read-out: pIC50 for Inhibition of mTORC1 and mTORC2 Substrate Phosphorylation, P-4E-BP1-(T37/46) (converted)) [nM] | IC50 ([3]; 4 h, AlphaLISA, read-out: pIC50 for Inhibition of mTORC1 and mTORC2 Substrate Phosphorylation, p-AKT 1/2/3 -(S473) (converted)) [nM] | IC50 ([1]; MDA-MB-468, 4 h, AlphaLisa SureFire Ultra, read-out: IC50 for Inhibition of mTORC1 and mTORC2 Substrate Phosphorylation, p-4E-BP1-(T37/46)) [nM] | IC50 ([2]; AlphaLisa SureFire Ultra, read-out: IC50 for Inhibition of mTORC1 and mTORC2 Substrate Phosphorylation, p-P70S6K-(T389)) [nM] | IC50 ([3]; MDA-MB-468, 4 h, AlphaLisa SureFire Ultra, read-out: IC50 for Inhibition of mTORC1 and mTORC2 Substrate Phosphorylation, p-AKT1/2/3-(S473)) [nM]
CO[C@H]1C[C@@H]2CC[C@@H](C)[C@@](O)(O2)C(=O)C(=O)N2CCCC[C@H]2C(=O)O[C@H]([C@H](C)C[C@@H]2CC[C@H](n3cc(COC(=O)NCCOCCOCCOCCOCCC(=O)NCc4cnc(N5CCN(c6ncc(C(=O)NCCCCn7nc(-c8ccc9oc(N)nc9c8)c8c(N)ncnc87)cn6)CC5)nc4)nn3)[C@H](OC)C2)CC(=O)[C@H](C)/C=C(\C)[C@@H](O)[C@@H](OC)C(=O)[C@H](C)C[C@H](C)/C=C/C=C/C=C/1C [Example 185] | < 3.16 | < 1 | 3.16 to 31.6 |  |  |  |  | 
CO[C@H]1C[C@@H]2CC[C@@H](C)[C@@](O)(O2)C(=O)C(=O)N2CCCC[C@H]2C(=O)O[C@H]([C@H](C)C[C@@H]2CC[C@H](n3cc(-c4cnc(N5CCN(c6ncc(C(=O)NCCOCCOCCOCCC(=O)NCCCCn7nc(-c8cc9cc(O)ccc9[nH]8)c8c(N)ncnc87)cn6)CC5)nc4)nn3)[C@H](OC)C2)CC(=O)[C@H](C)/C=C(\C)[C@@H](O)[C@@H](OC)C(=O)[C@H](C)C[C@H](C)/C=C/C=C/C=C/1C [Example 114] | > 1000 | < 1 | > 1000 |  |  |  |  | 
COc1cccc2cc(-c3nc([C@H]4CC[C@H](C(=O)NCCOCCOCCOCCOCCOCCOCCn5cc(CCCCO[C@@H]6CC[C@@H](C[C@@H](C)[C@@H]7CC(=O)[C@H](C)/C=C(\C)[C@@H](O)[C@@H](OC)C(=O)[C@H](C)C[C@H](C)/C=C/C=C/C=C(\C)[C@@H](OC)C[C@@H]8CC[C@@H](C)[C@@](O)(O8)C(=O)C(=O)N8CCCC[C@H]8C(=O)O7)C[C@H]6OC)nn5)CC4)n4ncnc(N)c34)[nH]c12 [Example 106] | < 3.16 | < 1 | 3.16 to 31.6 |  |  |  |  | 
CO[C@H]1C[C@@H]2CC[C@@H](C)[C@@](O)(O2)C(=O)C(=O)N2CCCC[C@H]2C(=O)O[C@H]([C@H](C)C[C@@H]2CC[C@H](n3cc(CCCC(=O)N(C)CCOCCOCCOCCC(=O)N(C)CCOCCOCCC(=O)N(C)CCCCn4nc(-c5ccc6oc(N)nc6c5)c5c(N)ncnc54)nn3)[C@H](OC)C2)CC(=O)[C@H](C)/C=C(\C)[C@@H](O)[C@@H](OC)C(=O)[C@H](C)C[C@H](C)/C=C/C=C/C=C/1C [Example 180] | > 1000 | 1 to 10 | > 1000 |  |  |  |  | 
CO[C@H]1C[C@@H]2CC[C@@H](C)[C@@](O)(O2)C(=O)C(=O)N2CCCC[C@H]2C(=O)O[C@H]([C@H](C)C[C@@H]2CC[C@@H](OCCCCc3cn(CCOCCOCCOCCOCCOCCOCCOCCOCCC(=O)N(C)CCCCn4nc(-c5ccc6oc(N)nc6c5)c5c(N)ncnc54)nn3)[C@H](OC)C2)CC(=O)[C@H](C)/C=C(\C)[C@@H](O)[C@@H](OC)C(=O)[C@H](C)C[C@H](C)/C=C/C=C/C=C/1C [Example 83] | < 3.16 | < 1 | < 3.16 |  |  |  |  | 
CO[C@H]1C[C@@H]2CC[C@@H](C)[C@@](O)(O2)C(=O)C(=O)N2CCCC[C@H]2C(=O)O[C@H]([C@H](C)C[C@@H]2CC[C@@H](O)[C@H](OC)C2)C[C@@H](OC)[C@H](C)/C=C(\C)[C@@H](O)[C@@H](OC)C(=NOCc2cn(CCOCCOCCOCCOCCOCCOCCC(=O)NCCCCn3nc(-c4ccc5oc(N)nc5c4)c4c(N)ncnc43)nn2)[C@H](C)C[C@H](C)/C=C/C=C/C=C/1C [Example 13] | 3.16 to 31.6 | 1 to 10 | 31.6 to 1000 |  |  |  |  | 
CO[C@H]1C[C@@H]2CC[C@@H](C)[C@@](O)(O2)C(=O)C(=O)N2CCCC[C@H]2C(=O)O[C@H]([C@H](C)C[C@@H]2CC[C@H](OCCCCc3cn(CCOCCOCCOCCOCCOCCOCCC(=O)NCCCCn4nc(-c5cccc(C(=O)NC6=NCCS6)c5)c5c(N)ncnc54)nn3)[C@H](OC)C2)CC(=O)[C@H](C)/C=C(\C)[C@@H](O)[C@@H](OC)C(=O)[C@H](C)C[C@H](C)/C=C/C=C/C=C/1C (stereo in doubt) [Example 41] | 3.16 to 31.6 | < 1 | > 1000 |  |  |  |  | 
CO[C@H]1C[C@@H]2CC[C@@H](C)[C@@](O)(O2)C(=O)C(=O)N2CCCC[C@H]2C(=O)O[C@H]([C@H](C)C[C@@H]2CC[C@@H](OCCCCc3cn(CCOCCOCCOCCOCCOCCOCCOCCOCCC(=O)N4CCc5cc(Cn6nc(-c7ccc8oc(N)nc8c7)c7c(N)ncnc76)ccc5C4)nn3)[C@H](OC)C2)C[C@@H](OC)[C@H](C)/C=C(\C)[C@@H](O)[C@@H](OC)C(=O)[C@H](C)C[C@H](C)/C=C/C=C/C=C/1C [Example 92] |  | < 1 |  | 3.16 to 31.6 | 31.6 to 1000 |  |  | 
CCO[C@@H]1C[C@@H]([C@H](C)C[C@@H]2CC[C@H](n3cc(COC(=O)NCCOCCOCCOCCC(=O)NCCOCCOCCC(=O)NCCCCn4nc(-c5ccc6oc(N)nc6c5)c5c(N)ncnc54)nn3)[C@H](OC)C2)OC(=O)[C@@H]2CCCCN2C(=O)C(=O)[C@]2(O)O[C@@H](CC[C@H]2C)C[C@H](OC)/C(C)=C/C=C/C=C/[C@@H](C)C[C@@H](C)C(=O)[C@H](OC)[C@H](O)/C(C)=C/[C@H]1C [Example 147] | 31.6 to 1000 | 10 to 1000 | > 1000 |  |  |  |  | 
CO[C@H]1C[C@@H]2CC[C@@H](C)[C@@](O)(O2)C(=O)C(=O)N2CCCC[C@H]2C(=O)O[C@H]([C@H](C)C[C@@H]2CC[C@@H](OCCCCc3cn(CCOCCOCCOCCOCCOCCOCCOCCOCCC(=O)NCCCCn4nc(-c5ccc6oc(N)nc6c5)c5c(N)ncnc54)nn3)[C@H](OC)C2)CC(=O)[C@H](C)/C=C(\C)[C@@H](O)[C@@H](OC)C(=O)[C@H](C)C[C@H](C)/C=C/C=C/C=C/1C [Example 1] | < 3.16 | < 1 | < 3.16 |  |  | 1 | 0.3 | 3.9
CO[C@H]1C[C@@H]2CC[C@@H](C)[C@@](O)(O2)C(=O)C(=O)N2CCCC[C@H]2C(=O)O[C@H]([C@H](C)C[C@@H]2CC[C@@H](OCCC(C)(C)Cc3cn(CCOCCOCCOCCOCCOCCOCCC(=O)NCCCCn4nc(-c5ccc6oc(N)nc6c5)c5c(N)ncnc54)nn3)[C@H](OC)C2)CC(=O)[C@H](C)/C=C(\C)[C@@H](O)[C@@H](OC)C(=O)[C@H](C)C[C@H](C)/C=C/C=C/C=C/1C [Example 59] | < 3.16 | < 1 | 3.16 to 31.6 |  |  |  |  | 
CO[C@H]1C[C@@H]2CC[C@@H](C)[C@@](O)(O2)C(=O)C(=O)N2CCCC[C@H]2C(=O)O[C@H]([C@H](C)C[C@@H]2CC[C@H](n3cc(COC(=O)NCCOCCOCCOCCC(=O)NCCOCCOCCOCCOCCC(=O)NCCCCn4nc(-c5cc6cc(O)ccc6[nH]5)c5c(N)ncnc54)nn3)[C@H](OC)C2)CC(=O)[C@H](C)/C=C(\C)[C@@H](O)[C@@H](OC)C(=O)[C@H](C)C[C@H](C)/C=C/C=C/C=C/1C [Example 126] | 3.16 to 31.6 | 1 to 10 | 31.6 to 1000 |  |  |  |  | 
CO[C@H]1C[C@@H]2CC[C@@H](C)[C@@](O)(O2)C(=O)C(=O)N2CCCC[C@H]2C(=O)O[C@H]([C@H](C)C[C@@H]2CC[C@@H](OC(=O)NCc3cn(CCOCCOCCOCCOCCOCCOCCC(=O)NCCCCn4nc(-c5ccc6oc(N)nc6c5)c5c(N)ncnc54)nn3)[C@H](OC)C2)CC(=O)[C@H](C)/C=C(\C)[C@@H](O)[C@@H](OC)C(=O)[C@H](C)C[C@H](C)/C=C/C=C/C=C/1C [Example 60] | < 3.16 | < 1 | 3.16 to 31.6 |  |  |  |  | 
CO[C@H]1C[C@@H]2CC[C@@H](C)[C@@](O)(O2)C(=O)C(=O)N2CCCC[C@H]2C(=O)O[C@H]([C@H](C)C[C@@H]2CC[C@@H](O)[C@H](OC)C2)C[C@@H](O)[C@H](C)/C=C(\C)[C@@H](O)[C@@H](OC)C(=NOCc2cn(-c3cnc(N4CCN(c5ncc(C(=O)NCCOCCC(=O)NCCCCn6nc(-c7ccc8oc(N)nc8c7)c7c(N)ncnc76)cn5)CC4CO)nc3)nn2)[C@H](C)C[C@H](C)/C=C/C=C/C=C/1C (stereo partly drawn) [Example 194] | > 1000 | < 1 | > 1000 |  |  |  |  | 
CO[C@H]1C[C@@H]2CC[C@@H](C)[C@@](O)(O2)C(=O)C(=O)N2CCCC[C@H]2C(=O)O[C@H]([C@H](C)C[C@@H]2CC[C@@H](OCCCCc3cn(CCOCCOCCOCCC(=O)NCCOCCOCCOCCC(=O)NCCCCn4nc(-c5ccc6oc(N)nc6c5)c5c(N)ncnc54)nn3)[C@H](OC)C2)CC(=O)[C@H](C)/C=C(\C)[C@@H](O)[C@@H](OC)C(=O)[C@H](C)C[C@H](C)/C=C/C=C/C=C/1C [Example 198] | < 3.16 | < 1 | 3.16 to 31.6 |  |  |  |  | 
